How the values were obtained:
human 5-LOX = biological target: T1, human 5-LOX (Homo sapiens, UniProt P09917); assay: 5-LOX enzyme activity, fluorescence method (5-HPETE, H2DCFDA); type: biochemical; conditions: read-out: 5-LO (IC50)
T1 construct: purchased Cayman 60402; host or cells: insect cells (lysate)
T1 sequence (P09917 1-674): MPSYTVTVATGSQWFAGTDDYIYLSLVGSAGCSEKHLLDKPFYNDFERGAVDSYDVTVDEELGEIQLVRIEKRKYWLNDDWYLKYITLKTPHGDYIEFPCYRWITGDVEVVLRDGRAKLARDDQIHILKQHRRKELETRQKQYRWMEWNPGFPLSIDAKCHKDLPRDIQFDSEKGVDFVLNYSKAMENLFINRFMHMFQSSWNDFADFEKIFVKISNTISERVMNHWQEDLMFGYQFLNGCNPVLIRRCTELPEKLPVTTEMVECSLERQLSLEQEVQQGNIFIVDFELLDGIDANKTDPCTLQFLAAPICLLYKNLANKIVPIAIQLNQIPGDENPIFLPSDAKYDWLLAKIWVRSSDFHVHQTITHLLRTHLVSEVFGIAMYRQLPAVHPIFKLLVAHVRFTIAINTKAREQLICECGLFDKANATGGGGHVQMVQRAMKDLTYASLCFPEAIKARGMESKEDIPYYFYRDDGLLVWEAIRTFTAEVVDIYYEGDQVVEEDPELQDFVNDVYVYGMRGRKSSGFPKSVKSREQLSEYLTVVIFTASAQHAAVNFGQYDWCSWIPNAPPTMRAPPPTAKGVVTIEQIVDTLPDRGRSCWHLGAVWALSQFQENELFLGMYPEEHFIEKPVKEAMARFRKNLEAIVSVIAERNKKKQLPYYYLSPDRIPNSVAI
Experimental: The activity of compounds against 5-LOX were determined by measuring LTB4 (leukotriene B4) levels and/or by a fluorescence method. Both approaches are outlined in more detail below;
The compound, in a dose response manner(0.5 nM to 10 uM), and enzyme mixture was pre-incubated for 5 minutes, and the enzymatic reaction was initiated by addition of ATP and arachidonic acid to a final concentration of 100 uM and 3 uM, respectively. […] All steps were carried out at room temperature.

[1] = system: Rat basophilic leukemia (RBL) cells; assay: LTB4 secretion assay in RBL (rat basophilic leukemia cells); type: cell-based; conditions: Rattus norvegicus, RBL
Experimental: Rat basophilic leukemia (RBL) cells (ATCC, Cat #CRL-2256) were maintained in EMEM (ATCC, Cat #30-2003) supplemented with 15% FBS. The day before RBL assay, cells were seeded at a concentration of 2×10^4 cells per well in 96-well plates. The media was replaced with 100 ul of EMEM supplemented with 0.5% FBS and compounds in dose response(5 nM to 100 uM) were added. After 15 min of pre-incubation at 37° C., arachidonic acid and calcium ionophore (A23187) were added to give a final concentration of 2.5 uM and 5 uM, respectively. After a further 10 min incubation at 37° C., culture supernatant was transferred and quantification of LTB4 was done with a Leukotriene B4 EIA kit (Cayman, Cat #520111) as instructed.

| SMILES | IC50 (human 5-LOX) | EC50 [1] |
| --- | --- | --- |
| CN(C)c1nc2ccc(NCc3ccc(N(Cc4ncco4)c4ccc(F)cc4)cc3)cc2[nH]1 [Compound 213] | < 1 µM | < 10 µM |
| Cn1c(NCc2ccc(Oc3ncc(Cl)cn3)cc2)nc2ccc(NC3CNC3)cc21 [Compound 407] | < 1 µM | < 10 µM |
| Cn1c(NCc2ccc(Oc3ccccn3)cc2)nc2ccc(N)cc21 [Compound 346] | < 1 µM | < 10 µM |
| Cn1c(NCc2ccc(-n3ccc4cc(Cl)cnc43)cc2)nc2ccc(N)cc21 [Compound 445] | < 1 µM | < 10 µM |
| Cn1c(NCc2ccc(Oc3ccc(Cl)cn3)nc2)nc2ccc(N)cc21 [Compound 308] | < 1 µM | > 20 µM |
| Cn1c(NCc2ccc(Oc3ccc(Cl)cn3)cc2)nc2ccc(NC(C)(C)C(=O)O)cc21 [Compound 326] | < 1 µM | < 10 µM |
| Cn1c(NCc2ccc(Oc3ncc(Cl)cn3)cc2F)nc2ccc(N)cc21 [Compound 380] | < 1 µM | < 10 µM |
| Nc1ccc2nc(NCc3ccc4cc(Cl)ccc4n3)[nH]c2c1 [Compound 156] | < 1 µM | 10 to 20 µM |
| CC(Nc1ccc2[nH]c(N(C)C)nc2c1)c1ccc(Oc2ccc(Cl)cc2)cc1 (stereo not shown) [Compound 131] | < 1 µM | < 10 µM |
| Cn1c(NCN2CC(Cc3ccccc3)OC2=O)nc2ccc(N)cc21 (stereo not shown) [Compound 174] | 1 to 10 µM | > 20 µM |
| COCCNc1ccc2nc(NCc3ccc(Oc4ccc(Cl)cn4)cc3)n(C)c2c1 [Compound 316] | < 1 µM | < 10 µM |
| CN(C)c1nc2cc(Nc3ccn(C)n3)ccc2n1CCOc1ccc(OC(F)(F)F)cc1 [Compound 46] | > 10 µM | < 10 µM |
| CCOC(=O)CN(c1ccc(F)cc1)c1ccc(CNc2ccc3nc(N(C)C)[nH]c3c2)cc1 [Compound 185] | < 1 µM | < 10 µM |
| Cn1c(NCc2ccc(Oc3ncc(Cl)cc3F)cc2)nc2ccc(N)cc21 [Compound 323] | < 1 µM | < 10 µM |
| Cn1c(NCc2ccc(Oc3ncc4ccc(Cl)cc4n3)cc2)nc2ccc(N)cc21 [Compound 440] | < 1 µM | < 10 µM |
| Cn1c(NCc2ccc(Oc3ncc4c(Cl)cccc4n3)cc2)nc2ccc(NC3COC3)cc21 [Compound 435] | < 1 µM | < 10 µM |
| CCC(Nc1nc2cc(N)ccc2[nH]1)c1ccc(Oc2ccc(Cl)cc2)cc1 (stereo not shown) [Compound 124] | < 1 µM | < 10 µM |
| Cc1cc(CNc2nc3ccc(N)cc3n2C)cc(C)c1Oc1ncc(Cl)cn1 [Compound 411] | < 1 µM | > 20 µM |
| CN(C(=O)c1ccc(CNc2nc3ccc(N)cc3n2C)cc1)c1ccc(Cl)cn1 [Compound 319] | < 1 µM | > 20 µM |
| OCC(O)CNc1ccc2nc(NCc3ccc(Oc4ccc(Cl)cc4)cc3)[nH]c2c1 (stereo not shown) [Compound 215] | < 1 µM | < 10 µM |
| Cc1cc(Nc2ccc3nc(NCc4ccc(Oc5ncc(Cl)cn5)cc4)[nH]c3c2)n[nH]1 [Compound 485] | < 1 µM | 10 to 20 µM |
| Cn1c(NCc2ccc(Oc3ccccn3)cc2)nc2ccc(NC3COC3)cc21 [Compound 347] | < 1 µM | < 10 µM |
| CCn1c(NCc2ccc(Oc3cnc(Cl)cn3)cc2)nc2ccc(Nc3n[nH]c(C)c3Cl)cc21 [Compound 515] | > 10 µM | < 10 µM |
| Cn1c(NCc2ccc(Oc3ccc(Cl)cn3)cc2)nc2ccc(N)cc21 [Compound 210] | < 1 µM | < 10 µM |
| CN(C)c1nc2cc(NCc3ccc(-c4nc(C(=O)O)co4)cc3)ccc2[nH]1 [Compound 228] | < 1 µM | > 20 µM |
| N#CCCNc1nc2ccc(N)cc2n1Cc1ccc(Oc2ccc(Cl)cc2)cc1 [Compound 252] | < 1 µM | < 10 µM |
| O=C(NC1CCCC1)c1c[nH]nc1Nc1ccc2[nH]c(NCc3ccc(Oc4ccc(Cl)cc4)cc3)nc2c1 [Compound 19] | < 1 µM | – |
| Nc1ccc2[nH]c(NCc3ccc(N4CCC(Oc5ccc(Cl)cc5)CC4)cc3)nc2c1 [Compound 2] | < 1 µM | – |
| Nc1nc2ccc(Nc3n[nH]cc3C(=O)NC3CCCC3)cc2n1CCOc1ccc(OC(F)(F)F)cc1 [Compound 18] | 1 to 10 µM | – |

Reference: patent US11447486B2, “2-amino-benzimidazole derivatives and their use as 5-lipoxygenase and/or prostaglandin E synthase inhibitors” (INSTITUT PASTEUR KOREA, priority 2014, dated 2022)
